# Data reported in ChEMBL document CHEMBL3879914, “Inhibitors of central nervous system vasoactive inhibitory peptide receptor 2” (2014).
# Assays:
# [1] = target: T1, Vasoactive intestinal polypeptide receptor 2 (Homo sapiens) (UniProt P41587); assay: (§1) Antagonist activity at recombinant human N-terminal signal peptide/FLAG epitope-tagged Rluc8-fused VIPR2 expressed in HEK293 cells assessed as inhibition of VIP-induced human mVenus-beta-arrestin2 binding at 0.5 uM preincubated for 5 mins with luciferin, coelenterazine H followed by VIP addition measured after 5 mins by BRET assay relative to control; assay type: cell-based
# T1 sequence (whole entry): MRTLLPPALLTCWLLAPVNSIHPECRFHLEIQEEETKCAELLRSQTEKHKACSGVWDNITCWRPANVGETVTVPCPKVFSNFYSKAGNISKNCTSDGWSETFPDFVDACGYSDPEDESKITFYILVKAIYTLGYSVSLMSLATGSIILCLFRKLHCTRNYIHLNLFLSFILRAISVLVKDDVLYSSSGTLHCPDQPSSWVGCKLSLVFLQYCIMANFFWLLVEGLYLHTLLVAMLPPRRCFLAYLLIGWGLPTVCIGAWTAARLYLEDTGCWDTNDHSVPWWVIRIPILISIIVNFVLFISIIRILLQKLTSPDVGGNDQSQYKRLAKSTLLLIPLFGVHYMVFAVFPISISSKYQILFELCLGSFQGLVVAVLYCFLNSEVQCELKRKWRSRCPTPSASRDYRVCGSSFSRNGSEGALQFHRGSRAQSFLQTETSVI
# [2] = target: T1, Vasoactive intestinal polypeptide receptor 2 (Homo sapiens); assay: as §1, with “epitope-tagged” for “epitope-tagged Rluc8-fused”, “cells co-expressing CAMYEL” for “cells”, “cAMP accumulation” for “human mVenus-beta-arrestin2 binding”; assay type: functional, cell-based
# [3] = target: T1, Vasoactive intestinal polypeptide receptor 2 (Homo sapiens); assay: as §1, with “1” for “0.5”; assay type: cell-based
# [4] = target: T1, Vasoactive intestinal polypeptide receptor 2 (Homo sapiens); assay: as §1, with “epitope-tagged” for “epitope-tagged Rluc8-fused”, “cells co-expressing CAMYEL” for “cells”, “cAMP accumulation” for “human mVenus-beta-arrestin2 binding”, “1” for “0.5”; assay type: functional, cell-based
# [5] = target: T1, Vasoactive intestinal polypeptide receptor 2 (Homo sapiens); assay: as §1, with “5” for “0.5”; assay type: cell-based
# [6] = target: T1, Vasoactive intestinal polypeptide receptor 2 (Homo sapiens); assay: as §1, with “epitope-tagged” for “epitope-tagged Rluc8-fused”, “cells co-expressing CAMYEL” for “cells”, “cAMP accumulation” for “human mVenus-beta-arrestin2 binding”, “5” for “0.5”; assay type: functional, cell-based
SMILES,inhibition [1] [%],inhibition [2] [%],inhibition [3] [%],inhibition [4] [%],inhibition [5] [%],inhibition [6] [%]
O=C(NC[C@@H](O)C[C@@H](Cc1ccccc1)C(=O)N[C@H]1c2ccccc2C[C@H]1O)c1cccnc1,-6.8 to 5.05,15.2,-5.7,13.5,-6.3,16.4
O=C(NC[C@@H](O)C[C@@H](Cc1ccccc1)C(=O)N[C@H]1c2ccccc2C[C@H]1O)C1CC1,-3.8 to 26.6,21,37,21.1,29.1,24
COc1ccc(S(=O)(=O)NC[C@@H](O)C[C@@H](Cc2ccccc2)C(=O)N[C@H]2c3ccccc3C[C@H]2O)cc1OC,10.5 to 30.1,21.1,23.2,20.4,32,28.2
O=C(N[C@H]1c2ccccc2C[C@H]1O)[C@H](Cc1ccccc1)C[C@H](O)CNS(=O)(=O)c1ccccc1C(F)(F)F,10.7 to 22.9,23,24.8,18.8,21,24.7
O=C(NC[C@@H](O)C[C@@H](Cc1ccccc1)C(=O)N[C@H]1c2ccccc2C[C@H]1O)c1ccco1,26.2 to 30.3,20.8,27.7,22.5,33.3,19.1
O=C(NC[C@@H](O)C[C@@H](Cc1ccccc1)C(=O)N[C@H]1c2ccccc2C[C@H]1O)c1ccc([N+](=O)[O-])cc1,-0.5 to 18.8,14,18.6,22.3,16.4,21.1
CC(=O)Nc1ccc(S(=O)(=O)NC[C@@H](O)C[C@@H](Cc2ccccc2)C(=O)N[C@H]2c3ccccc3C[C@H]2O)cc1,-1.2 to 11.7,15.2,4.9,19.1,4.2,19.1
CNC(=O)c1ccc(S(=O)(=O)NC[C@@H](O)C[C@@H](Cc2ccccc2)C(=O)N[C@H]2c3ccccc3C[C@H]2O)cc1,6.3 to 34.2,13.8,-1.6,22.1,-1,69.5
O=C(NC[C@@H](O)C[C@@H](Cc1ccccc1)C(=O)N[C@H]1c2ccccc2C[C@H]1O)c1cccc([N+](=O)[O-])c1,4.75 to 19.9,11.8,7.4,11,-4,13.5
O=C(Cc1cccc(Cl)c1)NC[C@@H](O)C[C@@H](Cc1ccccc1)C(=O)N[C@H]1c2ccccc2C[C@H]1O,11.3 to 21.9,14.4,20.1,16,17.2,26.5
C#CCCCC(=O)NC[C@@H](O)C[C@@H](Cc1ccccc1)C(=O)N[C@H]1c2ccccc2C[C@H]1O,26.2 to 45.8,20.8,16.1,20.2,25.8,26.6
CCN(CC)C(=O)c1ccc(S(=O)(=O)NC[C@@H](O)C[C@@H](Cc2ccccc2)C(=O)N[C@H]2c3ccccc3C[C@H]2O)cc1,0.3 to 15.3,2.5,3.1,5.9,-1.2,31.8
COc1cc(C(=O)NC[C@@H](O)C[C@@H](Cc2ccccc2)C(=O)N[C@H]2c3ccccc3C[C@H]2O)cc(OC)c1OC,13.7 to 29.6,15.6,37.2,20,18,9.3
CC(C)C(=O)Nc1ccc(S(=O)(=O)NC[C@@H](O)C[C@@H](Cc2ccccc2)C(=O)N[C@H]2c3ccccc3C[C@H]2O)cc1,4.6 to 5.3,1,5.1,6.9,-7.5,16.7
CC(C)(C)c1ccc(C(=O)NC[C@@H](O)C[C@@H](Cc2ccccc2)C(=O)N[C@H]2c3ccccc3C[C@H]2O)cc1,15.5 to 16.2,10.7,11.3,16,7.8,23.2
CC(C)c1cc(C(C)C)c(S(=O)(=O)NC[C@@H](O)C[C@@H](Cc2ccccc2)C(=O)N[C@H]2c3ccccc3C[C@H]2O)c(C(C)C)c1,29.7 to 49.1,19.5,30.9,18.6,8.3,90
CC(C)Nc1ccc(S(=O)(=O)NC[C@@H](O)C[C@@H](Cc2ccccc2)C(=O)N[C@H]2c3ccccc3C[C@H]2O)cc1,8.1 to 16.2,17.2,-2,18.2,11.8,20.6
CC(C)CS(=O)(=O)NC[C@@H](O)C[C@@H](Cc1ccccc1)C(=O)N[C@H]1c2ccccc2C[C@H]1O,7.1 to 21.1,13.3,3.2,15.6,20,22.2
O=C(NCc1ccccc1)c1ccc(S(=O)(=O)NC[C@@H](O)C[C@@H](Cc2ccccc2)C(=O)N[C@H]2c3ccccc3C[C@H]2O)cc1,4.8 to 41.4,25,-2,32.3,-7.7,90.5
CCCCNC(=O)c1ccc(S(=O)(=O)NC[C@@H](O)C[C@@H](Cc2ccccc2)C(=O)N[C@H]2c3ccccc3C[C@H]2O)cc1,-0.4 to 7.55,-0.4,2.9,5.9,-5.5,20.6

# More lines, now with the values ahead:
inhibition [1] [%],inhibition [2] [%],inhibition [3] [%],inhibition [4] [%],inhibition [5] [%],inhibition [6] [%],SMILES
38.5 to 91.8,27.3,59.5,43.6,90.4,93.1,N#Cc1ccc(S(=O)(=O)NC[C@@H](O)C[C@@H](Cc2ccccc2)C(=O)N[C@H]2c3ccccc3C[C@H]2O)cc1
-5.6 to 9.55,0.9,1.9,5.1,13.8,5.3,CCCCNC(=O)[C@H](Cc1ccccc1)C[C@H](O)CNS(=O)(=O)c1ccc([N+](=O)[O-])cc1
-0.9 to 5.35,9.2,3.3,12.3,4.7,6,O=C(NN1CCCCC1)[C@@H](Cc1ccccc1)C[C@H](O)CNS(=O)(=O)c1ccc([N+](=O)[O-])cc1
54.1 to 91.6,33.9,76.7,45.9,89.4,93.8,COc1ccc(S(=O)(=O)NC[C@@H](O)C[C@@H](Cc2ccccc2)C(=O)N[C@H]2c3ccccc3C[C@H]2O)cc1
-6.4 to 5.45,6.3,4.4,7.1,6.5,4.4,O=C(NN1CCCCC1)[C@H](Cc1ccccc1)C[C@H](O)CNS(=O)(=O)c1ccc([N+](=O)[O-])cc1
-1.2 to 13.4,-5,-1.3,-2.5,0.4,-2.8,CC1CCC(NC(=O)[C@H](Cc2ccccc2)C[C@H](O)CNS(=O)(=O)c2ccc([N+](=O)[O-])cc2)CC1 (stereo partly specified)
6.25 to 6.9,7,4,8.3,3.2,9.3,CNC(=O)[C@H](Cc1ccccc1)C[C@H](O)CNS(=O)(=O)c1ccc([N+](=O)[O-])cc1
9.5 to 12.2,14.2,9.2,14.2,14.9,9.4,O=C([C@@H](Cc1ccccc1)C[C@H](O)CNS(=O)(=O)c1ccc([N+](=O)[O-])cc1)N1CCCCC1
3.5 to 8.35,14.6,-9.8,12.6,7,9.7,NC(=O)[C@@H](Cc1ccccc1)C[C@H](O)CNS(=O)(=O)c1ccc([N+](=O)[O-])cc1
1.8 to 10.7,-1.1,4.4,-1.3,24.2,-2.9,O=C(NCc1ccccc1)[C@H](Cc1ccccc1)C[C@H](O)CNS(=O)(=O)c1ccc([N+](=O)[O-])cc1
13.8 to 36.8,6.5,27.9,19.6,20.2,7.4,C[C@H](CC(C)(C)C)NC(=O)[C@@H](Cc1ccccc1)C[C@H](O)CNS(=O)(=O)c1ccc([N+](=O)[O-])cc1
